The values that follow come from US20180256673A1, “METHODS FOR TREATING FUNGAL INFECTIONS” (priority 2015, published 2018).

SMILES strings stand for the structures.

Experiment [1] deals with azole-resistant Candida albicans R357 strain. As to the kind of experiment: microbe, parasite or virus in culture. The class given is cell-based. To be noted: for MIC: Candida albicans.
Experiment [2] relates to C. glabrata CG01, ATCC 200918, MMX 7070. Briefly: Time-kill assay in vagina-simulative medium pH 4.0 (Table 17). Type of experiment: cell-based, Candida glabrata. The following applies: C. glabrata CG01 (FLU S), VSM pH 4.0.
Experiment [3] relates to C. albicans ATCC 44858, DPL001, R357. As to the kind of experiment: Time-kill assay in vagina-simulative medium pH 4.0 (Table 16). Type of experiment: cell-based, Candida albicans. To be noted: ATCC 44858 (FLU S).
The test system of experiment [4] is C. tropicalis CTO2, MMX 7255, MMX 7525. As to the kind of experiment: Time-kill assay in vagina-simulative medium pH 4.0 (Table 18). The following applies: C. tropicalis CT02 (FLU S), VSM pH 4.0. The class given is cell-based, Candida tropicalis.
In experiment [5] the test system is C. parapsilosis CP02, CP01, MMX 7370. Briefly: Time-kill assay in vagina-simulative medium pH 4.0 (Table 19). The class given is cell-based, Candida parapsilosis. To be noted: C. parapsilosis CP02 (FLU S), VSM pH 4.0.

Consider `C[C@@H](c1ncncc1F)[C@](O)(Cn1cncn1)c1ccc(F)cc1F` [Voriconazole], for which the “Susceptibility (CLSI)” value in experiment [1] (C. albicans R357) is on record as “R”. Besides, in experiment [1], the MIC is greater than 64 µg/mL.

As to `CC(C)N1CCN(c2ccc(OCC3COC(Cn4cncn4)(c4ccc(Cl)cc4Cl)O3)cc2)CC1` (stereo not drawn) [TCZ, terconazole], the “log-fold changes in CFU” value in experiment [2] (24 h, 2 μg/mL) is listed as 2.43 log-fold; in experiment [2] (24 h, 8 μg/mL) it was 2.43 log-fold; in experiment [2] (24 h, 32 μg/mL), 2.40 log-fold; in experiment [2] (24 h, 128 μg/mL) it was 1.79 log-fold; in experiment [2] (48 h, 2 μg/mL), 2.42 log-fold; in experiment [2] (48 h, 8 μg/mL), 2.45 log-fold. The “log-fold changes in CFU” value was 2.36 log-fold in experiment [2] (48 h, 32 μg/mL); 2.35 log-fold in experiment [2] (48 h, 128 μg/mL); 2.47 log-fold in experiment [2] (72 h, 2 μg/mL); 2.19 log-fold in experiment [2] (72 h, 8 μg/mL); 2.21 log-fold in experiment [2] (72 h, 32 μg/mL); 2.30 log-fold in experiment [2] (72 h, 128 μg/mL). In addition, the “log-fold changes in CFU” value in experiment [4] (24 h, 2 μg/mL) was 2.39 log-fold; in experiment [4] (24 h, 8 μg/mL) it was 2.33 log-fold; in experiment [4] (24 h, 32 μg/mL), 0.00 log-fold; in experiment [4] (24 h, 128 μg/mL) it was −1.00 log-fold; in experiment [4] (48 h, 2 μg/mL) it was 2.57 log-fold; in experiment [4] (48 h, 8 μg/mL), 2.33 log-fold. Further, the “log-fold changes in CFU” value in experiment [4] (48 h, 32 μg/mL) is recorded as 0.23 log-fold; in experiment [4] (48 h, 128 μg/mL) it was −1.00 log-fold; in experiment [4] (72 h, 2 μg/mL), 2.65 log-fold; in experiment [4] (72 h, 8 μg/mL), 2.52 log-fold; in experiment [4] (72 h, 32 μg/mL), 0.27 log-fold; in experiment [4] (72 h, 128 μg/mL), −0.94 log-fold. Also, the “log-fold changes in CFU” value in experiment [5] (24 h, 2 μg/mL) is on record as 0.21 log-fold; in experiment [5] (24 h, 8 μg/mL), −0.79 log-fold; in experiment [5] (24 h, 32 μg/mL), −0.89 log-fold; in experiment [5] (24 h, 128 μg/mL), −0.95 log-fold; in experiment [5] (48 h, 2 μg/mL), 1.89 log-fold; in experiment [5] (48 h, 8 μg/mL) it was −0.64 log-fold. Moreover, the “log-fold changes in CFU” value is recorded as −2.48 log-fold in experiment [5] (48 h, 32 μg/mL); −2.65 log-fold in experiment [5] (48 h, 128 μg/mL); 2.00 log-fold in experiment [5] (72 h, 2 μg/mL); −0.63 log-fold in experiment [5] (72 h, 8 μg/mL); −2.78 log-fold in experiment [5] (72 h, 32 μg/mL); −2.95 log-fold in experiment [5] (72 h, 128 μg/mL). Besides, the “log-fold change in CFU” value is on record as 0.33 log-fold in experiment [3] (24 h, 2 μg/mL); 0.33 log-fold in experiment [3] (24 h, 8 μg/mL); −1.16 log-fold in experiment [3] (24 h, 32 μg/mL); −1.41 log-fold in experiment [3] (24 h, 128 μg/mL); 2.00 log-fold in experiment [3] (48 h, 2 μg/mL); 1.38 log-fold in experiment [3] (48 h, 8 μg/mL). Also, the “log-fold change in CFU” value in experiment [3] (48 h, 32 μg/mL) is given as −1.07 log-fold; in experiment [3] (48 h, 128 μg/mL), −1.64 log-fold; in experiment [3] (72 h, 2 μg/mL) it was 2.52 log-fold; in experiment [3] (72 h, 8 μg/mL), 2.27 log-fold; in experiment [3] (72 h, 32 μg/mL), −0.41 log-fold; in experiment [3] (72 h, 128 μg/mL), −0.81 log-fold.

With `CC[C@@H]([C@H](C)O)n1ncn(-c2ccc(N3CCN(c4ccc(OC[C@@H]5CO[C@@](Cn6cncn6)(c6ccc(F)cc6F)C5)cc4)CC3)cc2)c1=O` [Posaconazole], the MIC in experiment [1] is greater than 64 µg/mL.
